Measured values: US20190008773A1, “MAGNETIC FIELD SENSITIVE NANO COMPLEX AND METHOD FOR MANUFACTURING THE SAME” (GWANGJU INSTITUTE OF SCIENCE AND TECHNOLOGY, priority 2017, published 2019)

Test system: cell
Test: cytotoxicity in a physiological environment (FIG. 8A)
Assay type: cell-based
Conditions: no alternating magnetic field

Question: `COc1cccc2c1C(=O)c1c(O)c3c(c(O)c1C2=O)C[C@@](O)(C(=O)CO)C[C@@H]3O[C@H]1C[C@H](N)[C@H](O)[C@H](C)O1` [free DOX, doxorubicin] was tested. Which non-specific cytotoxicity did it give?
Answer: The non-specific cytotoxicity was “high”.
